Data: patent US12370161B2, “Composition for treating atopy or pruritus comprising N-acetyl or N-acyl amino acid” (STEMDR INC., priority 2017, dated 2025)

Tested on: atopic dermatitis-induced Balb/c mouse
Experiment: SCORAD clinical skin score, DNFB-induced atopic dermatitis in Balb/c mouse
Format: in vivo
Set-up: key to Mouse 1 Sum / Mean (of Sum, SCORAD) / Mouse 2 Sum / Mouse 3 Sum: sum of symptom grades, each 0 (none) to 3 (severe)
Conditions: DNFB Balb/c; for Mouse 1 Erythema: 0.1% in PBS, 200 μL on back skin daily day 22-28, grade 0-3 (0 no symptom, 1 mild, 2 moderate, 3 severe); for Mouse 1 Abrasion / Mouse 1 Dryness / Mouse 1 Edema / Mouse 1 Eschar / Mouse 1 Lichenification / Mouse 1 Sum / Mouse 2 Abrasion / Mouse 2 Dryness / Mouse 2 Edema / Mouse 2 Erythema / Mouse 2 Eschar / Mouse 2 Lichenification / Mouse 2 Sum / Mouse 3 Abrasion / Mouse 3 Dryness / Mouse 3 Edema / Mouse 3 Erythema / Mouse 3 Eschar / Mouse 3 Lichenification / Mouse 3 Sum / Mean (of Sum, SCORAD): 0.1% topical day 22-28; for Mouse 1 Abrasion / Mouse 1 Dryness / Mouse 1 Edema / Mouse 1 Eschar / Mouse 1 Lichenification / Mouse 2 Abrasion / Mouse 2 Dryness / Mouse 2 Edema / Mouse 2 Erythema / Mouse 2 Eschar / Mouse 2 Lichenification / Mouse 3 Abrasion / Mouse 3 Dryness / Mouse 3 Edema / Mouse 3 Erythema / Mouse 3 Eschar / Mouse 3 Lichenification: grade 0-3; for Mouse 1 Sum / Mouse 2 Sum / Mouse 3 Sum: overall dermatitis score, sum of individual scores; for Mean (of Sum, SCORAD): mean of 3 mice
Protocol: In order to induce atopy-like dermatitis in Balb/c mice, DNFB sensitization was induced by applying 100 μL of 0.35% 2,4-dinitrofluorobenzene (DNFB) (Sigma, USA) in acetone/olive oil (3:1) on the shaved back skin of the mice. Then, dermatitis was induced by applying 100 μL of 0.25% DNFB on days 6, 9, 12, 15, 18 21, 24 and 27 on the shaved back skin. Control mice were treated with a vehicle of the same volume (FIG. 1A).
After dissolving an N-acetyl or N-acylamino acid in phosphate-buffered saline to 0.1%, 200 μL of the solution was applied on the back skin of the mice every day, from day 22 until day 28 for the Balb/c atopic dermatitis model, and from day 15 until day 21 for the Nc/Nga atopic dermatitis model. When the N-acetyl or N-acylamino acid was treated together with DNFB, they were treated with 12-hour intervals in order to avoid direct reaction between the DNFB and the N-acetyl or N-acylamino acid. A non-treated group and a 2,4-dinitrofluorobenzene (DNFB) group were treated with phosphate-buffered saline of the same volume (FIGS. 1A-1B). As the N-acetylamino acid, products purchased from Sigma-Aldrich (USA), MP scientific (USA), TCI (Tokyo Chemical Industry, Japan), Santacruz (USA), etc. were used without purification.
The degree of skin soothing and the severity of atopic dermatitis were evaluated macroscopically according to the previously established SCORAD (SCORing Atopic Dermatitis) method (Oranje et al., 2007). The degree of symptoms such as edema, erythema, eschar, dryness, abrasion, lichenification, etc. was graded from 0 to 3 (0, no symptom; 1, mild; 2, moderate; 3, severe). The overall dermatitis score was determined from the sum of all individual scores (Table 1). The assessment was performed by an investigator who was blind to the grouping of the mice.

Row | SMILES | Mouse 1 Erythema | Mouse 1 Abrasion | Mouse 1 Dryness | Mouse 1 Edema | Mouse 1 Eschar | Mouse 1 Lichenification | Mouse 1 Sum | Mouse 2 Abrasion | Mouse 2 Dryness | Mouse 2 Edema | Mouse 2 Erythema | Mouse 2 Eschar | Mouse 2 Lichenification | Mouse 2 Sum | Mouse 3 Abrasion | Mouse 3 Dryness | Mouse 3 Edema | Mouse 3 Erythema | Mouse 3 Eschar | Mouse 3 Lichenification | also measured
1 | CC[C@H](C)[C@H](NC(C)=O)C(=O)O [N-acetyl-L-isoleucine] | 3 | 1 | 3 | 2 | 3 | 3 | 15 | 2 | 3 | 2 | 2 | 2 | 3 | 14 | 1 | 3 | 2 | 3 | 2 | 3 | Mouse 3 Sum: 14; Mean (of Sum, SCORAD): 14.33
2 | CC(=O)N[C@@H](Cc1c[nH]cn1)C(=O)O [N-acetyl-L-histidine] | 3 | 2 | 3 | 2 | 2 | 3 | 15 | 2 | 3 | 2 | 3 | 2 | 3 | 15 | 2 | 3 | 2 | 3 | 2 | 2 | Mouse 3 Sum: 14; Mean (of Sum, SCORAD): 14.67
3 | CC(=O)N[C@@H](Cc1ccccc1)C(=O)O [N-acetyl-L-phenylalanme] | 3 | 2 | 3 | 2 | 1 | 2 | 13 | 2 | 3 | 2 | 3 | 2 | 3 | 15 | 1 | 3 | 2 | 3 | 2 | 3 | Mouse 3 Sum: 14; Mean (of Sum, SCORAD): 14
4 | CC(=O)N[C@@H](CC(C)C)C(=O)O [N-acetyl-L-leucine] | 3 | 2 | 3 | 2 | 2 | 2 | 14 | 2 | 3 | 2 | 3 | 2 | 3 | 15 | 2 | 3 | 2 | 3 | 2 | 1 | Mouse 3 Sum: 13; Mean (of Sum, SCORAD): 14
5 | CC(=O)N[C@@H](Cc1ccc(O)cc1)C(=O)O [N-acetyl-L-tyrosme] | 3 | 2 | 3 | 2 | 3 | 2 | 15 | 2 | 3 | 2 | 3 | 2 | 3 | 15 | 2 | 2 | 2 | 3 | 2 | 2 | Mouse 3 Sum: 13; Mean (of Sum, SCORAD): 14.33
6 | CC(=O)N[C@@H](CC(=O)O)C(=O)O [N-acetyl-L-aspartic acid] | 3 | 2 | 2 | 2 | 2 | 2 | 13 | 2 | 3 | 2 | 3 | 2 | 2 | 14 | 2 | 2 | 2 | 3 | 2 | 1 | Mouse 3 Sum: 12; Mean (of Sum, SCORAD): 13
7 | CSCC[C@H](NC(C)=O)C(=O)O [N-acetyl-L-methionine] | 2 | 2 | 3 | 2 | 2 | 3 | 14 | 2 | 3 | 2 | 3 | 3 | 3 | 16 | 2 | 3 | 2 | 2 | 2 | 3 | Mouse 3 Sum: 14; Mean (of Sum, SCORAD): 14.67
